Data published in ChEMBL document CHEMBL1201862, “PubChem BioAssay data set” (2004).
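These data come from cells grown in 96-well plates and exposed to compound for 48 hours at five concentrations. Abbreviation: GI50, concentration required for 50% inhibition of growth.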 Active and inactive are the calls of the source. Cut-off read from the data, not from the text of the source: active = GI50 up to about 1.1 µM and inactive = higher.

Assays:
Experiment in all cases: NCI-60 cell line screen, 48 h
[1] = system: 786-0
[2] = system: A549
[3] = system: ACHN
[4] = system: BT-549
[5] = system: CAKI-1
[6] = system: COLO 205
[7] = system: DU-145
[8] = system: EKVX
[9] = system: HCC 2998
[10] = system: HCT-116
[11] = system: HCT-15
[12] = system: HOP-62
[13] = system: HT-29
[14] = system: Hs-578T
[15] = system: KM12
[16] = system: LOX IMVI
[17] = system: M14
[18] = system: MCF7
[19] = system: MDA-MB-435
[20] = system: MDA-N
[21] = system: MOLT-4
[22] = system: Malme-3M
[23] = system: NCI-H226
[24] = system: NCI-H23
[25] = system: NCI-H522
[26] = system: NCI/ADR-RES
[27] = system: OVCAR-3
[28] = system: OVCAR-4
[29] = system: OVCAR-5
[30] = system: OVCAR-8
[31] = system: PC-3
[32] = system: RPMI-8226
[33] = system: RXF 393
[34] = system: SF-268
[35] = system: SF-295
[36] = system: SF-539
[37] = system: SK-MEL-28
[38] = system: SK-MEL-2
[39] = system: SK-MEL-5
[40] = system: SK-OV-3
[41] = system: SN12C
[42] = system: SNB-19
[43] = system: SNB-75
[44] = system: SR
[45] = system: SW-620
[46] = system: T47D
[47] = system: TK-10
[48] = system: U-251
[49] = system: UACC-257
[50] = system: UACC-62
[51] = system: UO-31
[52] = system: A498
[53] = system: CCRF-CEM
[54] = system: HL-60
[55] = system: HOP-92
[56] = system: IGROV-1
[57] = system: K562
[58] = system: NCI-H460

Measured: GI50

CCOC(=O)C1(F)S(=O)(=O)OCCOS1(=O)=O
inactive: [1] > 100 µM | [2] > 100 µM | [3] > 100 µM | [4] > 100 µM | [5] > 100 µM | [6] > 100 µM | [7] > 100 µM | [8] > 100 µM | [9] > 100 µM | [10] > 100 µM | [12] > 100 µM | [13] > 100 µM | [14] 93.3 µM | [15] > 100 µM | [16] > 100 µM | [17] > 100 µM | [18] > 100 µM | [19] > 100 µM | [20] > 100 µM | [21] > 100 µM | [22] > 100 µM | [23] > 100 µM | [24] > 100 µM | [25] > 100 µM | [26] > 100 µM | [27] > 100 µM | [28] > 100 µM | [29] > 100 µM | [30] > 100 µM | [31] > 100 µM | [32] > 100 µM | [33] > 100 µM | [34] > 100 µM | [35] > 100 µM | [36] > 100 µM | [37] > 100 µM | [38] > 100 µM | [39] > 100 µM | [40] > 100 µM | [41] > 100 µM | [42] > 100 µM | [43] > 100 µM | [44] > 100 µM | [45] > 100 µM | [46] > 100 µM | [47] > 100 µM | [48] > 100 µM | [49] > 100 µM | [50] > 100 µM | [51] > 100 µM
> 100 µM: [11]

O=NC1c2cccc3cccc(c23)C1N=O (stereo unspecified)
active: [56] 1.08 µM | [21] 0.612 µM
inactive: [1] 12.9 µM | [52] 17.5 µM | [2] 2.43 µM | [3] 1.72 µM | [4] 4.21 µM | [5] 2.77 µM | [53] 1.19 µM | [6] 3.17 µM | [7] 11.1 µM | [8] 2.58 µM | [10] 1.34 µM | [54] 2.5 µM | [12] 5.26 µM | [55] 7.11 µM | [13] 10.9 µM | [14] 15.9 µM | [57] 2.65 µM | [15] 3.89 µM | [16] 1.59 µM | [17] 12 µM | [18] 7.93 µM | [19] 4.78 µM | [20] 3.84 µM | [24] 8.87 µM | [58] 4.36 µM | [25] 1.93 µM | [26] 2.39 µM | [27] 2.69 µM | [28] 1.59 µM | [29] 2.83 µM | [30] 2.07 µM | [31] 10.1 µM | [32] 8.17 µM | [33] 3.51 µM | [34] 10.2 µM | [35] 9.31 µM | [36] 12.8 µM | [39] 14 µM | [40] 11 µM | [42] 11.8 µM | [43] 9.79 µM | [45] 2.45 µM | [46] 17 µM | [47] 10.2 µM | [48] 3.1 µM | [49] 12.9 µM | [51] 2.76 µM
1.79 µM: [11]
